The results in this text go back to ChEMBL document CHEMBL1795203, “Synthesis and evaluation of highly potent GABA(A) receptor antagonists based on gabazine (SR-95531)” (Bioorg Med Chem Lett, 2011).

The assay deals with T1, GABA-A receptor; alpha-1/beta-2/gamma-2 (Homo sapiens, UniProt P14867+P18507+P47870).
T1 sequence (P14867 whole entry): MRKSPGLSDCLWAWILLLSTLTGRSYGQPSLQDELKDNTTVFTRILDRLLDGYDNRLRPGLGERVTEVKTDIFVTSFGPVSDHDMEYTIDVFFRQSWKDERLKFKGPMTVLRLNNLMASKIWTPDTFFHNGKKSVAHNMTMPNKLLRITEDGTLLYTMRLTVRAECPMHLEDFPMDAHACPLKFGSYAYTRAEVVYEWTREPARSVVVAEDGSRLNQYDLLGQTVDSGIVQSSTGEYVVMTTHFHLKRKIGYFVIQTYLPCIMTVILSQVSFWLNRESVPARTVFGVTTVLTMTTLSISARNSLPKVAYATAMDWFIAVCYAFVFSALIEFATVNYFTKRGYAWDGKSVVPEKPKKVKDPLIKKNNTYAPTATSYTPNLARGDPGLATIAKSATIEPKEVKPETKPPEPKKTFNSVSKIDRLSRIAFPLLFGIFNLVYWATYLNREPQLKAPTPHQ
T1 sequence (P47870 whole entry): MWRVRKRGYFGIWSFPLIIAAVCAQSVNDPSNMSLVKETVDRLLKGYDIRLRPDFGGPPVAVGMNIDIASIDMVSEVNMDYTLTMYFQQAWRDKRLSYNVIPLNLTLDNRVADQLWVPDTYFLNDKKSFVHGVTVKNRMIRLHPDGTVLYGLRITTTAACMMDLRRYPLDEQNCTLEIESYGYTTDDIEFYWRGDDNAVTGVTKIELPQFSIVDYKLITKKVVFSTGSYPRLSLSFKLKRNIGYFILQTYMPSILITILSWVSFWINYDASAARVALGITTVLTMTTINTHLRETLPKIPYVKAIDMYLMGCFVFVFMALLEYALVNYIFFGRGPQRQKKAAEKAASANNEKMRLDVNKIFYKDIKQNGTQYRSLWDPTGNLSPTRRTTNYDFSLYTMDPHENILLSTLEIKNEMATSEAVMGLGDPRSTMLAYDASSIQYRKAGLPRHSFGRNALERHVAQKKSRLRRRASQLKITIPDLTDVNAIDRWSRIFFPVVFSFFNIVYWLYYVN
T1 sequence (P18507 whole entry): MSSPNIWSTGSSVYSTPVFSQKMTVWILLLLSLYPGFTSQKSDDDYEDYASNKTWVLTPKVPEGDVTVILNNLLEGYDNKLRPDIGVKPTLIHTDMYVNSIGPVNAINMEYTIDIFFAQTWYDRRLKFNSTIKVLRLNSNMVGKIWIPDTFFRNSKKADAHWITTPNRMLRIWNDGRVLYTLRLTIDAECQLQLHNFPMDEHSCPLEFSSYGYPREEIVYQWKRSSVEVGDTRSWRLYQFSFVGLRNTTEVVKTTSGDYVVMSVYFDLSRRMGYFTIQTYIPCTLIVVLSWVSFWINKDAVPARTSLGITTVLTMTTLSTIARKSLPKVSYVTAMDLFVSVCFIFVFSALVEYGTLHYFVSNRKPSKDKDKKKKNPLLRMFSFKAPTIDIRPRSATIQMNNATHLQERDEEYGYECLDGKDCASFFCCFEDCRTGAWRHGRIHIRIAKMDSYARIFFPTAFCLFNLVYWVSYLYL
The assay can be described thus: Antagonist activity at human recombinant GABA A receptor alpha1beta2gamma2S expressed in HEK293 cells assessed as inhibition of GABA-induced current by patch clamp electrophysiology. The class given is functional, cell-based. On the technique in general: The patch-clamp technique gives a direct electrical read-out from membranes.
With `COc1ccc(-c2ccc(=N)n(CCCC(=O)O)n2)cc1` [GABAZINE], the IC50 (commonly the concentration that inhibits the measured activity by half) came out at 349 nM.

Take `N=c1ccc(-c2ccc(OCc3ccccc3)cc2)nn1CCCC(=O)O`: the IC50 worked out at 11 nM. For `C#CCOc1ccc(-c2ccc(=N)n(CCCC(=O)O)n2)cc1`, the IC50 was determined as 40 nM.

`N=c1ccc(-c2ccc(OCc3cccc([N+](=O)[O-])c3)cc2)nn1CCCC(=O)O`: the IC50 turned out to be 3 nM. As to `COc1cccc(COc2ccc(-c3ccc(=N)n(CCCC(=O)O)n3)cc2)c1`, the IC50 is 7 nM.
